Experimental data reported in US9346764B2, “Imidazolidinedione compounds and their uses” (HINOVA PHARMACEUTICALS INC., priority 2011, dated 2016).
Read-outs that look alike come from different tables or passages of the source.

What was measured:
[1] = tested on: human prostate cancer 22RV1 cells; test: Inhibition of the growth of prostate cancer cells (MTT), 22RV1; type: cell-based
Experimental: (§1) The ability of compounds to inhibit the growth of prostate cancer cells was tested:
(§2) First, the human prostate cancer LNCaP (purchased from ATCC, USA) and 22RV1 (purchased from SIBS) cells were transferred to a RPMI1640 culture medium containing 10% charcoal-stripped fetal bovine serum (FBS). After cultured for three days, the cells were digested with 0.25% trypsin and counted through trypan blue staining. The cells were plated, with 100 μL cell suspension containing 5000 cells per well. 200 μL medium was added to the wells around the cell plate for avoiding edge effects.
(§3) The cell plate was placed in a cell incubator for 30 min, 10 μL of 4 nM R1881 was added into each well and homogeneously mixed. Upon the addition of R1881, the cell plate was placed in a cell incubator and incubated at 37° C., under 5% CO2 for 96 hours. Afterwards, 40 μL of MTT (prepared in PBS, concentration is 2.5 mg/mL) was added into each wells, and incubated at 37° C. for 2 hours. The supernatant was sucked off, and 100 μL of DMSO was added into each well. The plate was shaken by a vibrator for 10 min for dissolving formazan. The plate was read at 570 nm wavelength using a microplate reader in the unit of OD.

[2] = tested on: prostate specific antigen (PSA); test: Inhibition of prostate specific antigen (PSA) in 22RV1 cells induced with R1881; type: cell-based; settings: Homo sapiens, 22Rv1, read-out: 22RV1 (IC50, nM)
Experimental: (§4) The in vitro biological activity of test compounds of the present invention as androgen receptor antagonist can be tested by the methods as reported in J. Medcinal Chemistry (2010, page 2779-2796 and WO201 1/029392).
(§5) The inhibition activity of these compounds on prostate specific antigen (PSA) was determined using prostate cancer cells (LNCaP and 22RV1). Prostate cancer cells (LNCaP and 22RV1) could be purchased from ATCC, USA. The expression of PSA in cells was induced with the artificially synthesized androgen R1881 (methyltrienolone, androgen receptor activator) to increase the sensitivity of inhibition experiment.

[3] = tested on: prostate specific antigen (PSA); test: Inhibition of prostate specific antigen (PSA) in LNCaP cells induced with R1881; type: cell-based; settings: Homo sapiens, read-out: LNCaP (IC50, nM)
Experimental: as §4, §5

[4] = tested on: human prostate cancer LNCaP cells; test: Inhibition of the growth of prostate cancer cells (MTT), LNCaP; type: cell-based
Experimental: as §1, §2, §3

[5] = Pharmacokinetic evaluation in mice; type: in vivo, Kunming mice (KM mice); settings: male KM mice, 10 mg/kg intragastrically; for Cmax / Tmax: Kunming (KM), mouse, plasma, po, DMSO:PEG400:H2O 1:5:14
Experimental: Compounds were dissolved in DMSO:PEG400:H2O 1:5:14. The volume of administration was 10 mL/kg. Before testing, the mice fasted for 12 h and drunk water ad libitum. Then, the mice were fed together at 2 h after administration. 0.3 mL of blood were took from 3 mice through retrobulbar venous plexus at 0.5, 1.0, 2.0, 4.0, 6.0 and 24 h after administration, placed in heparinized tubes, and centrifuged for 5 min at 11000 rpm. The plasma was separated and frozen in a refrigerator at −20° C. 100 uL of serum was transferred with a pipettor into a clean plastic centrifuge tube marked with compound's name and time point, and diluted with acetonitrile (CH3CN) and centrifuged. The concentration of drug was analyzed by LC-MS. Serum was stored at −80° C. before analysis.

[6] = Homo sapiens, 22Rv1, 96 h, read-out: 22RV1 (IC50, uM)
[7] = Homo sapiens, LNCaP, 96 h, read-out: LNCaP (IC50, uM)
[8] = Homo sapiens, growth inhibition, 22RV1 cells, R1881 added, 96 hours, MTT, read-out: 22RV1 (IC50)
[9] = Homo sapiens, growth inhibition, LNCaP cells, R1881 added, 96 hours, MTT, read-out: LNCaP (IC50)
[10] = growth inhibition, LNCaP cells, R1881 added, 96 hours, MTT, read-out: LNCaP (IC50)

SMILES | IC50 [1, 6] | IC50 [2] | IC50 [3] | IC50 [4, 7] | IC50 [1, 8] | IC50 [4, 9] | other results
CNC(=O)c1ccc(N2C(=S)N(c3ccc(C#N)c(C(F)(F)F)c3)C(=O)C23CCC3)cc1F [Example 1, reference compound] | 26 µM | < 2000 nM | < 1000 nM | 4.09 µM | – | – | –
CN(C)C(=O)c1ccc(N2C(=S)N(c3ccc(C#N)c(C(F)(F)F)c3)C(=O)C23CCC3)cc1F [Example 2] | – | < 1600 nM | < 800 nM | – | 20.8 µM | 1.37 µM | –
CN(C)C(=O)c1ccc(N2C(=S)N(c3ccc(C#N)c(C(F)(F)F)c3)C(=O)C2(C)C)cc1F [Example 5, 4-{7-[4-cyano-3-(trifluoromethyl)phenyl]-5,5-dimethyl-4-oxo-2-thio-1-imidazolidinyl}-2-fluoro-N,N-dimethyl benzamide] | – | < 1600 nM | < 800 nM | – | 23.4 µM | 2.07 µM | –
[2H]C([2H])([2H])NC(=O)c1ccc(N2C(=S)N(c3ccc(C#N)c(C(F)(F)F)c3)C(=O)C2(C)C)cc1F [Example 6, 4-{7-[4-cyano-3-(trifluoromethyl)phenyl]-5,5-dimethyl-4-oxo-2-thio-1-imidazolidinyl}-2-fluoro-N-trideuteromethylbenzamide] | – | – | – | – | – | – | Cmax [5]: 10400 ng/mL; Tmax [5]: 6 h; AUC compared with undeuterated compound 17 [5]: significantly increased; Cmax increase compared with undeuterated compound 17 [5]: at least 20%
[2H]C([2H])([2H])NC(=O)c1ccc(N2C(=S)N(c3ccc(C#N)c(C(F)(F)F)c3)C(=O)C23CCC3)cc1F [Example 3] | 15 µM | < 1000 nM | < 400 nM | 0.36 µM | – | – | –
CNC(=O)c1ccc(N2C(=S)N(c3ccc(C#N)c(C(F)(F)F)c3)C(=O)C2(C)C)cc1F [Example 14, 4-{7-[4-cyano-3-trifluoromethyl-2,6-dideuterophenyl]-5,5-dimethyl-4-oxo-2-thio-1-imidazolidinyl}-2-fluoro-N-trideuteromethyl benzamide] | – | – | – | – | – | – | IC50 [4, 10]: 1.5 µM
[2H]c1cc(N2C(=S)N(c3ccc(C#N)c(C(F)(F)F)c3)C(=O)C2(C)C)ccc1C(=O)NC [Example 11, 4-{7-[4-cyano-3-(trifluoromethyl)phenyl]-5,5-dimethyl-4-oxo-2-thio-1-imidazolidinyl}-2-deutero-N-methyl benzamide] | 18.9 µM | – | – | 1.75 µM | – | – | –
CC(O)(CS(=O)(=O)c1ccc(F)cc1)C(=O)Nc1ccc(C#N)c(C(F)(F)F)c1 (centres unmarked) [bicalutamide, reference compound] | – | – | – | – | 30.9 µM | 18.4 µM | –
CNC(=O)c1ccc(N2C(=S)N(c3ccc(C#N)c(C(F)(F)F)c3)C(=O)C2(C)C)cc1 [Example 12, 4-{7-[4-cyano-3-(trifluoromethyl)phenyl]-5,5-dimethyl-4-oxo-2-thio-1-imidazolidinyl}-2-deutero-N-trideuteromethyl benzamide] | – | – | – | – | – | – | IC50 ([1]; growth inhibition, 22RV1 cells, R1881 added, 96 hours, MTT, read-out: 22RV1 (IC50)): 25.8 µM; IC50 [4, 10]: 2.42 µM
CNC(=O)c1ccc(N2C(=S)N(c3ccc(C#N)c(C(F)(F)F)c3)C(=O)C2(C)C)cc1F [Example 4, 4-{7-[4-cyano-3-(trifluoromethyl)phenyl]-5,5-dimethyl-4-oxo-2-thio-1-imidazolidinyl}-2-fluoro-N-methyl-benzamide, reference compound] | – | – | – | – | – | – | Cmax [5]: 8450 ng/mL; Tmax [5]: 6 h
